The nature of data set [1]: solubility of hydrophobic guest in water, observed by 1H NMR. It counts as physicochemical.
For data set [2] the following is noted: aqueous environment; cited from earlier work.
For data set [3] the following is noted: Hwang et al. J. Am. Chem. Soc. 2007; cited from earlier work.

In the case of `CCCCCCCCCCCCCCCCCC[n+]1ccc(-c2cc[n+](C)cc2)cc1` [Viologen 3, Octadecyl methyl viologen], the “change in solubility in water” value in data set [1] (addition of CB[8] to a solution of Np-PEG5k and 3) is given as “increase in solubility”. Besides, the water solubility result in data set [1] (guest alone) is on record as “only sparingly water-soluble”. Cucurbit[8]uril: the “association constants (Ka), simultaneous binding of two organic guest molecules” value in data set [2] is “≈ 10^11 M^−2”. In the case of cucurbit[7]uril [CB[7]], in data set [3], the “Ka, 1:1 complex with ferrocene derivatives” value is on record as “≈ 10^12 M^−1”.

The values are drawn from patent US8378059B2, “Supramolecular handcuffs in polymeric architecture” (Cambridge Enterprise Ltd., priority 2007, dated 2013).
